One experiment has as its target human PD1 (Homo sapiens, UniProt Q15116). Description: Biacore surface plasmon resonance, binding to human PD1. The conditions noted are these: for KA: 25°C, HEPES pH 7.4; for Rmax: maximum binding capacity. How it is done:
(§1) Binding experiments were performed on a Biacore T-200 (GE Healthcare Life Sciences, Buckinghamshire, UK) at 25°C. The assay buffer was 10 mM HEPES buffer (pH 7.4), 150 mM NaCl, 3 mM EDTA, and 0.05% P20. The regeneration buffer was 10 mM HEPES buffer (pH 7.4), 150 mM NaCl, 3 mM EDTA, and 0.05% P20. The immobilization buffer was 10 mM sodium acetate at pH 5.0. The flow rate used for immobilizing the ligand was 5 μL/min. The flow rate for kinetics analysis was 30 μL/min. In initial scouting experiments, 12,000 RU of human and 6000 RU of mouse PD1 receptors were directly immobilized on flow cell 2 and flow cell 4 of the CM5 chip using an amine coupling method (EDC/NHS). The unoccupied sites were blocked with 1M ethanol amine. […] Flow cell 1 was kept blank and used for reference subtraction. Binding of an analyte to the ligand was monitored in real-time. Based on the scouting results, full kinetics were performed by immobilizing 10,000 RU of the ligand to a new chip using an analyte concentration of 25 μM, followed by serial dilution to 12.5, 6.25, 3.125, 1.562, 0.78, and 0 μM concentration, or as indicated. Data analysis was performed using software for Biacore 3000, because it has more flexibility in terms of obtaining the binding characteristics with a limited analyte concentration range. […] Chi-square (χ^2) analysis was performed between the actual sensorgram and the sensorgram generated from the BIAnalysis software to determine the accuracy of the analysis. A χ^2 value within 1–2 was considered to be significant (accurate) and below 1 was considered to be highly significant (highly accurate).
(§2) The four peptides identified by phage display were then tested for binding to human and mouse PD1 using the surface plasmon resonance technique.
(In general: SPR reads the build-up and loss of mass on a sensor chip optically.)

Experiment [1] deals with human PD1 on Jurkat T cells. Description: Competitive inhibition of PD-L1-Fc binding to Jurkat cells overexpressing human PD1. The class given is cell-based. Particulars: 10 μM peptide, 30 min on ice, PD-L1-Fc 4 μg/mL; flow cytometry MFI normalized to no peptide; duplicates. For orientation: A flow cytometer gives signals particle by particle.
The target in a further experiment is T1, mouse PD1 (Mus musculus, UniProt Q02242).
T1 sequence (Q02242 25-288): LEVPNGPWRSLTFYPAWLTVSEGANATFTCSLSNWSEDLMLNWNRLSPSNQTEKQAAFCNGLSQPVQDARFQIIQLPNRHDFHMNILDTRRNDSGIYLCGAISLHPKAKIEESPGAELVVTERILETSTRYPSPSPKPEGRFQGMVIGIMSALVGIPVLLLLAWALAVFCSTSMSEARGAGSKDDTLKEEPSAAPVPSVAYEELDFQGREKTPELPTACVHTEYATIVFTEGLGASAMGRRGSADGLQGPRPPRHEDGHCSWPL
Description: Biacore surface plasmon resonance, binding to mouse PD1. Particulars: for relative affinity for mouse PD1: compared to WQ20 and HD20 (Table 2); for KA: 25°C, HEPES pH 7.4. The protocol: as §1, §2

For a further experiment, the system named is P. yoelii sporozoites. Kind of experiment: Sporozoite challenge and protection against malaria. The class given is in vivo, Plasmodium yoelii (17XNL) in BALB/c mice. The conditions noted are these: AdPyCS 10^9 virus particles IM; 200 μg IP days 1, 3, 5, 7 where treated; challenge day 12; n = 20/group. From the text: Six- to eight-week-old female BALB/c mice were purchased from Taconic (Germantown, NY, USA). All mice were maintained under standard conditions in the Laboratory Animal Research Center of the Rockefeller University, and the protocol was approved by the Institutional Animal Care and Use Committee at the Rockefeller University (Assurance no. A3081-01). A recombinant serotype 5 adenovirus, AdPyCS that expressed Plasmodium yoelii circumsporozoite protein (PyCS) was constructed as previously described ([32]). Wild-type P. yoelii parasites of the 17 XNL strain were maintained in the insect facility of the Division of Parasitology, Department of Microbiology at New York University School of Medicine. […]
Sporozoite challenge experiments were performed as described previously ([32]–[35]). […] Parasitemia was monitored from days 3 to 8 after the sporozoite challenge, by detecting the presence of parasitized red blood cells in thin blood smears to assess for a complete protection against malaria. […]
To evaluate efficacy of the PD1 peptide antagonists as a prophylactic vaccine adjuvant, a rodent malaria model dependent on the generation of protective CD8 T cells was employed. […] On day 12, spleens were harvested and the number of splenic circumsporozoite protein (CS)-specific, IFN-γ-secreting CD8^+ T cells were assessed using an ELISpot assay. […]

For a further experiment, the system named is human PBMC. The class given is cell-based.
[2] abbreviates: human PD1, peptide analyte 0–25 μM.
The mark [3] stands for this setting: mouse PD1, peptide analyte 0–25 μM.
Where [4] appears, read: mouse PD1, peptide analyte 0–25 μM, maximum binding capacity.

Where no end group is shown, it is not given here.

Chain of human PD1 (Q15116 25-288): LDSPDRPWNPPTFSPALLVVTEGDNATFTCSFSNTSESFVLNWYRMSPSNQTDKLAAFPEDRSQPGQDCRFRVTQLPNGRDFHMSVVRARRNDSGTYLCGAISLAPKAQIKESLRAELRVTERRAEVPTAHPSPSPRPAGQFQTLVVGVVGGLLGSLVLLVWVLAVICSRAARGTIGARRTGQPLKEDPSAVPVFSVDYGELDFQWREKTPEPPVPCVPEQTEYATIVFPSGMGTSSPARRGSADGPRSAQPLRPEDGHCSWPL

For the substance SSYHHFKMPELHFGKNTFHQ [SQ20], the KA at human PD1 (setting [2]) worked out at 194000 M⁻¹; on mouse PD1 (setting [3]), 21400 M⁻¹. The values for the Rmax at human PD1 (setting [2]) and on mouse PD1 (setting [4]) were 4.05 RU and 12.8 RU, respectively. Besides, in experiment [1], the “reduction in PD-L1-Fc binding” value is given as > 30%. Also, at mouse PD1, the “relative affinity for mouse PD1” value is “bound to mouse PD1 with a higher affinity compared to WQ20 and HD20”.
For “negative control peptide: control peptide is the OVA323−339 peptide (malaria model) (KISQAVHAAHAEINEAG; UniProt P01012 323-339, looked up, fragment)”, the “protection against malaria” value with P. yoelii sporozoites is recorded as “no protection”.
As to QTRTVPMPKIHHPPWQNVVP [QP20], the KA came to 93600 M⁻¹ at human PD1 (setting [2]) and 18000 M⁻¹ on mouse PD1 (setting [3]). Besides, the results for the Rmax at human PD1 (setting [2]) and on mouse PD1 (setting [4]) were 3.83 RU and 13.4 RU, respectively. Also, the “cytokine secretion (IFN-γ, IL-17, IL-6)” value in the experiment with human PBMC is given as “With the exception of QP20, the other PD1-binding peptides significantly increased cytokine secretion at 200 μM relative to tetanus alone”. Also, in experiment [1], the “reduction in PD-L1-Fc binding” value was < 30%. Besides, at mouse PD1, the “relative affinity for mouse PD1” value was “bound to mouse PD1 with a higher affinity compared to WQ20 and HD20”.
As for “Mouse PD-L1: mouse PD-L1 analyte [reference compound]”, the Rmax with mouse PD1 (mouse PD1, mouse PD-L1 analyte 0–50 (head μM)) is given as 259 RU; with mouse PD1 (mouse PD1, mouse PD-L1 analyte 0–1000 (head μM)) it was 1.07 × 10^3 RU.
For the substance HHHQVYQVRSHWTGMHSGHD [HD20], the Rmax at human PD1 (human PD1, peptide analyte 0–12.5 μM) is recorded as 3.35 RU; at mouse PD1 (setting [4]) it was 76 RU. In addition, the “reduction in PD-L1-Fc binding” value in experiment [1] is < 30%. The KA at mouse PD1 (setting [3]) was found to be 4250 M⁻¹.

The values above are taken from article PMC7068811 (Frontiers in Immunology, 2020).
